Measurements from EP0029617A1, “Use of tertiary heterocyclic amines as synergists in pesticides; derivatives of cycloamines” (priority 1979, dated 1981).

How the values were obtained:
Drosophila melanogaster = test: whole plant or invertebrate; type: in vivo
From the text: Die insektiziden Wirkungen von tertiären heterocyclischen Aminen und die synergistischen Eigenschaften mit dem Phosphorsäureester Dimethoat und dem Carbamat Dimetilan, getestet an Drosophila melanogaster.
Die Versuche wurden in Petrischalen von 10 cm Durchmesser ausgeführt. Es wurden zunächst die gerade noch wirksamen Konzentrationen von Dimethoat und Dimetilan bestimmt. Für Dimethoat wurde 0,005 % und für Dimetilan 0,0001 % als günstige Versuchskonzentration ermittelt. Die Aminkomponente wurde mit 1 ml 0,05%iger Lösung + 1 ml Aceton auf insektizide Wirkung getestet. Zur Bestimmung des Synergismus wurde 1 ml 0,05%ige Aminlösung + 1 ml 0,005.%ige Dimethoatlösung, bzw. + 1 ml 0,0001%ige Dimetilanlösung pro Petrischale eingesetzt. Alle Verdünnungen wurden mit Aceton als Lösungsmittel hergestellt.
In den Petrischalen wurden die Lösungen am Boden gut verteilt und 30 min lang antrocknen lassen. In jede Petrischale wurden 20 mit Kohlendioxid betäubte Drosophila eingezählt. Alle 5 min, insgesamt 12 mal, wurde die Anzahl der toten Drosophila ausgezählt und notiert. Die Zahlen wurden aufsummiert und im Verhältnis zur möglichen Zahl an toten Drosophila in % angegeben, wobei der Tot aller Drosophila innerhalb der ersten 5 min 100 % Wirkung entspricht. Jeder Versuch wurde mit 3 Wiederholungen durchgeführt. In Tabelle 1 sind die Mittelwerte der Ergebnisse zusammengestellt.
Zur Ermittlung des synergistischen Faktors wurden die Einzelwerte pro Zeiteinheit durch die für Dimethoat, bzw. Dimetilan für die jeweilige Zeiteinheit gefundenen Werte dividiert. Die Werte für jede Zeiteinheit wurden summiert und durch die Anzahl der Zeiteinheiten dividiert. Die Versuche wurden bei sonst stets gleichbleibenden Bedingungen bei Temperaturen von 20 - 22°C ausgeführt. Die Kontrollversuche zeigten bei Versuchsabschluß stets 0 % Mortalität. Hat die Substanz selbst eine insektizide Wirkung, so wurden die Wirkungsfaktoren für Dimethoat und Dimetilan nach Abzug des Substanzwertes berechnet und in der Tabelle aufgeführt.
Im Beispiel 1 war das Verhältnis von Insektizid und erfindungsgemäßem Amin 1 : 10 in den Gemischen mit Dimethoat. In der Tabelle 2 sind Verhältnisse von 1 : 1, 1 : 2 und 1 : 0,2 bei Versuchen mit Dimethoat aufgeführt, dabei wurde das Dimethoat immer in einer Konzentation von 0,005 % eingesetzt. Die Tabelle zeigt, daß auch bei diesen Verhältnissen noch eine gute synergistische Wirkung vorhanden ist, und es keineswegs einer großen überdosierung des Amins bedarf.

[1] = test system: Kornkäfer (sitophilus granarius L); test: whole plant or invertebrate; type: in vivo; settings: for Wirksamkeit in % Substanz allein / mortality at 1000 µg/mL: amine 1 mg/ml in Aceton mixed 1 : 1 with Aceton, 2 ml per dish, 25 weevils, dead counted after 3 h; for Wirksamkeit in % Substanz +Ripcord: amine 1 mg/ml mixed 1 : 1 with Ripcord 0,01 mg/ml; for Wirksamkeit in % Substanz +Talcord: amine 1 mg/ml mixed 1 : 1 with Talcord 0,01 mg/ml; for mortality at 1000 µg/mL: Sitophilus granarius, read-out: Wirksamkeit in % Substanz allein
Outline: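 Acetone solutions (2 ml) were dried as films in 15 cm Petri dishes and 25 grain weevils added per dish, with a filter inserted after 1 h. Dead beetles were counted at 3 h at 19–21 °C, and % mortality and the synergistic factor were derived.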

[2] = amine 1 mg/ml + Ripcord 0,01 mg/ml
[3] = amine 1 mg/ml + Talcord 0,01 mg/ml

Compound	Synergistischer Faktor bei Ripcord [1, 2]	Synergistischer Faktor bei Talcord [1, 3]	Wirksamkeit in % Substanz allein [1] [%]	Wirksamkeit in % Substanz +Ripcord ([1]; 3 h)	Wirksamkeit in % Substanz +Talcord ([1]; 3 h)	further results
CCCCCCCCCN1CCCCC1CC (centres unmarked) [1-n-Nonyl-2-ethyl-piperidin]						Wirksamkeit in % Substanz +Dimeti-lan (Drosophila melanogaster; 1 ml 0,05%ige amine solution + 1 ml 0,0001%ige Dimetilan solution): 7,9%; Wirksamkeit in % Substanz +Dimethoat (Drosophila melanogaster; 1 ml 0,05%ige amine solution + 1 ml 0,005 %ige Dimethoat solution (Dimethoat : amine 1 : 10)): 24,6%; mortality at 0.05 % (Drosophila melanogaster; Drosophila melanogaster, 1 ml 0,05%ige amine solution + 1 ml Aceton per dish, 20 flies, dead counted every 5 min, 12 times, mean values, read-out: Wirksamkeit in % Substanz allein): 5.8%; Faktor der Wirkungssteigerung bei Dime-methoat (Drosophila melanogaster; amine 0,05 % + Dimethoat 0,005 %, calculated after subtracting the amine's own effect): 2,19
Cc1cc(OC(=O)N(C)C)nn1C(=O)N(C)C [Dimetilan, reference compound]						mortality at 0.0001 % (Drosophila melanogaster; Drosophila melanogaster, read-out: Wirksamkeit von Dimetilan): 2.5%
CN(C)C(=O)N1CCCCCC1 [N-Dimethyl-carbamoyl-hexa-methylenimin]	2,45	5,48	0	77,2%	53,2%	
CN(C)C(=O)N1CCCCC1 [N-Dimethyl-carbamoyl-piperidin]	1,69	6,60	0	53,2%	64,0%	
c1ccc(C(c2ccccc2)N2CCOCC2)cc1 [N-Diphenyl-methyl-morpholin]	2,29	4,12	0	72,0%	40,0%	
OCCN1CCOCC1 [N-Ethanol-morpholin]	2,12	4,0	0	66,8%	38,8%	
CC(C)=CCCC(C)=CCCC(C)=CCN1CCCCC1 [N-Farnesyl-piperidin]	2,67	4,25		84,0%	41,2%	mortality at 1000 µg/mL [1]: 0%
N#CCN1CCCCCC1 [N-Hexamethylenimino-aceto-nitril]	1,69	1,53	0	53,2%	14,8%	
CCOC(=O)CCN1CCOCC1 [N-Morpholino-propionsäure-ethylester]	2,07	2,76	0	65,2%	26,8%	
CCCCCC(C=O)CN1CCCCC1 (centres unmarked) [N-Piperidino-methyl-heptanal]			0	49,2%	60,0%	Synergistischer Faktor bei Ripcord ([1]; in vivo): 1,56; Synergistischer Faktor bei Talcord ([1]; in vivo): 6,19
OCC(CO)(CO)CN1CCCCC1 [N-Piperidino-pentaerythrit]	1,99	3,30	0	62,8%	32,0%	
c1cc2c(cc1CN1CCCCCC1)OCO2 [N-Piperonyl-hexamethylenimin]	3,05	7,01		96,0%	68,0%	mortality at 1000 µg/mL [1]: 0%
c1cc2c(cc1CN1CCOCC1)OCO2 [N-Piperonyl-morpholin]	2,32	3,84		73,2%	37,2%	mortality at 1000 µg/mL [1]: 0%
CCC(CC)N1CCCC1 [Pentyl-(3)-N-pyrrolidin]	2,67	4,82	0	84,0%	46,8%	
O=C(OCc1ccccc1)C(c1ccccc1)N1CCCCC1 (centres unmarked) [Phenyl-N-piperidino-essig-säure-benzylester]	3,05	2,89	0	96,0%	28,0%	
CCOC(=O)C(c1ccccc1)C(C(=O)OCC)N1CCCC1 (centres unmarked) [Phenyl-N-pyrrolidin-bern-steinsäure-diethylester]	2,79	2,76	0	88,0%	26,8%	
CCOC(=O)C(c1ccccc1)N1CCCC1 (centres unmarked) [Phenyl-N-pyrrolidin-essigsäure-ethylester]	2,92	2,60	0	92,0%	25,2%	
CC1(C)C(C=C(Cl)Cl)C1C(=O)OC(C#N)c1cccc(Oc2ccccc2)c1 (centres unmarked) [Ripcord, reference compound]						Wirksamkeit von Ripcord ([1]; Ripcord alone, 0,01 mg/ml mixed 1 : 1 with Aceton, 3 h): Wirksamkeit von Ripcord: 31,5%
CC1(C)C(C=C(Cl)Cl)C1C(=O)OCc1cccc(Oc2ccccc2)c1 (centres unmarked) [Talcord, reference compound]						Wirksamkeit von Talcord ([1]; Talcord alone, 0,01 mg/ml mixed 1 : 1 with Aceton, 3 h): Wirksamkeit von Talcord: 9,7%
CCC/C=C(\CC)CN1CCCC1 [cis-3-N-pyrrolidino-methyl-hepten-(3)]	1,61	1,65	0	50,8%	16,0%	
CC(C)=CCC/C(C)=C\CN1CCCCC1 [cis-8-N-Piperidino-2,6-di-methyl-octadien-(2,6)]	2,16	2,76	0	68,0%	26,8%	
N-Hydrinden-morpholin	1,40	3,17	0	44,0%	30,8%	
N-Hydrinden-piperidin	1,36	5,90	0	42,8%	57,2%	
N-Lactosido-pyrrolidin	2,70	2,06	0	85,2%	20,0%	
